# Results: ChEMBL document CHEMBL3779893, “Identification of novel GLUT inhibitors” (Bioorg Med Chem Lett, 2016)
# Assays:
# [1] = biological target: T1, Solute carrier family 2, facilitated glucose transporter member 1 (Homo sapiens, UniProt P11166); assay: Inhibition of human GLUT1 expressed in DLD1 cells assessed as ATP production co-incubated with 100 mM glucose for 16 hrs by CellTiter-Glo assay in presence of oxidative phosphorylation inhibitor rotenone; assay type: cell-based, DLD-1
# T1 sequence (P11166 whole entry): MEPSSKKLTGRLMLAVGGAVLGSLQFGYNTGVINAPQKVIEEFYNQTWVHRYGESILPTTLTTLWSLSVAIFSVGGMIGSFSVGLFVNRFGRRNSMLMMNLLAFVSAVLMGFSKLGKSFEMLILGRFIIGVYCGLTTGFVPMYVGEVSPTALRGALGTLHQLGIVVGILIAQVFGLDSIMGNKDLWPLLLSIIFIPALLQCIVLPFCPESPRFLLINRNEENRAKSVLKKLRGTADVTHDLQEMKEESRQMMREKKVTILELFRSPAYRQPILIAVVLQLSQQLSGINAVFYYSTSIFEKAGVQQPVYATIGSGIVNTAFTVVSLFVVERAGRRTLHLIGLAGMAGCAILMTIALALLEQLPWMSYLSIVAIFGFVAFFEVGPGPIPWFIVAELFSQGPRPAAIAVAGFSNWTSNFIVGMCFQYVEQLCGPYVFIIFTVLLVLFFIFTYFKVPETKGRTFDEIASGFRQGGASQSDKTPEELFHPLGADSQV
# [2] = biological target: T2, Solute carrier family 2, facilitated glucose transporter member 2 (Homo sapiens, UniProt P11168); assay: Inhibition of human GLUT2 expressed in CHO cells assessed as ATP production co-incubated with 30 mM fructose for 16 hrs by CellTiter-Glo assay in presence of oxidative phosphorylation inhibitor rotenone; assay type: cell-based
# T2 sequence (P11168 whole entry): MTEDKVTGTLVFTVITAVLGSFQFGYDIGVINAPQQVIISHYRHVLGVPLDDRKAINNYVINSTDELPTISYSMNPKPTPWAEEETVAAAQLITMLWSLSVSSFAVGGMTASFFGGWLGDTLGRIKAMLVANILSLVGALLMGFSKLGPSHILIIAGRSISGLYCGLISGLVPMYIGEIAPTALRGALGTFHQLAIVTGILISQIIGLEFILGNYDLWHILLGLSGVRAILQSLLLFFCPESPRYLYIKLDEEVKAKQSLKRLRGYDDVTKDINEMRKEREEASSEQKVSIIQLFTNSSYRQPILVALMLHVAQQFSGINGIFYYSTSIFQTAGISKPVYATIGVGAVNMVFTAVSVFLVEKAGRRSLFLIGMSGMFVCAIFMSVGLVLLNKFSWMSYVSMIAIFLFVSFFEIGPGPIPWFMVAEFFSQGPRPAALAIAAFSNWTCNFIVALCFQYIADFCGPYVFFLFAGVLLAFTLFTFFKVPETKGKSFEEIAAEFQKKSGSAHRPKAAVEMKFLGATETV
# [3] = biological target: T3, Solute carrier family 2, facilitated glucose transporter member 3 (Homo sapiens, UniProt P11169); assay: Inhibition of human GLUT3 expressed in GLUT1 knock-out DLD1 cells assessed as ATP production co-incubated with 300 mM glucose for 16 hrs by CellTiter-Glo assay in presence of oxidative phosphorylation inhibitor rotenone; assay type: cell-based, DLD-1
# T3 sequence (P11169 whole entry): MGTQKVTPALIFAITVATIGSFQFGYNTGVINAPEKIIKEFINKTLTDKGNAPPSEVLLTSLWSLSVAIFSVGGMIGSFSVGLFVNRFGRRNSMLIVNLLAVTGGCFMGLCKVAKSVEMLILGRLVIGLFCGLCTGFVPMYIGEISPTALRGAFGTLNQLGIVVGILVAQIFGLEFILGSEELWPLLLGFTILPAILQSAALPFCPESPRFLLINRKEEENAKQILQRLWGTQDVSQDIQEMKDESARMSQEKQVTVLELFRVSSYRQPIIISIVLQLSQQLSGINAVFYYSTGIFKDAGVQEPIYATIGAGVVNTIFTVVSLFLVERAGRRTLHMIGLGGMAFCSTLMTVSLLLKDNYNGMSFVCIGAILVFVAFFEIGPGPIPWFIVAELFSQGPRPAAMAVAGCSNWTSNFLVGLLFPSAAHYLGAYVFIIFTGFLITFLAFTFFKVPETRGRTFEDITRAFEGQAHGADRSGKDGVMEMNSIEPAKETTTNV
# [4] = Intrinsic clearance in rat hepatocytes; assay type: ADME, cell-based, Hepatocyte; settings: read-out: CLH (converted)
# [5] = Intrinsic clearance in human liver microsomes; assay type: ADME; settings: read-out: CLH (converted)
SMILES,IC50 [1] [nM],IC50 [2] [nM],IC50 [3] [nM],CLint scaled [4] [mL/min/kg],CLint scaled [5] [mL/min/kg]
COc1ccccc1N1CCN(c2ncnc3c2cnn3-c2ccc(C)cc2)CC1,1500,10000,3000,,
COc1ccccc1N1CCN(c2ncnc3c2cnn3-c2cccc(C)c2)CC1,50,10000,96,,
COc1ccccc1N1CCN(c2ncnc3c2[nH]c(=O)n3-c2ccccc2)CC1,53,> 10000,630,,
COc1ccccc1N1C[C@H]2C[C@@H]1CN2c1ncnc2c1cnn2-c1ccccc1,> 10000,> 10000,> 10000,,
COc1ccc(C#N)cc1N1CCN(c2ncnc3c2cnn3-c2ccccc2)CC1,20,> 10000,50,,
COc1ccccc1N1CC2(C1)CN(c1ncnc3c1cnn3-c1ccccc1)C2,4400,,2200,,
COc1ccccc1N1CCN(c2ncnc3c2cnn3-c2ccccc2OC)CC1,50,1200,110,,
COc1ccc(F)cc1N1CCN(c2ncnc3c2cnn3-c2ccccc2)CC1,1,> 10000,10,43.3,6.17
COc1ccccc1N1CCN(c2ncnc3c2cnn3-c2ccccn2)CC1,510,8000,940,,
COc1ccncc1N1CCN(c2ncnc3c2cnn3-c2ccccc2)CC1,9,510,60,,
FC(F)(F)Oc1ccccc1N1CCN(c2ncnc3c2cnn3-c2ccccc2)CC1,> 10000,> 10000,> 10000,,
Fc1ccccc1N1CCN(c2ncnc3c2cnn3-c2ccccc2)CC1,270,1120,680,,
COc1ccccc1N1CCN(c2ncnc3c2cnn3-c2cc(F)cc(F)c2)CC1,8,> 10000,90,,
COc1ccccc1N1CCN(c2ncnc3c2cnn3-c2cc(F)ccc2OC)CC1,30,880,320,,
COc1ccc(N2CCN(c3ncnc4c3cnn4-c3ccccc3)CC2)cc1,1770,8700,1770,,
COc1ccc(-n2ncc3c(N4CCN(c5ccccc5OC)CC4)ncnc32)cn1,100,,340,,
N#Cc1cccc(N2CCN(c3ncnc4c3cnn4-c3ccccc3)CC2)c1,39,220,69,,
COc1ccccc1N1CCN(c2ncnc3c2cnn3C(C)c2ccccc2)CC1 (stereo not given),410,2100,950,,
COc1ccccc1N1C[C@@H]2C[C@H]1CN2c1ncnc2c1cnn2-c1ccccc1,2300,> 10000,4100,,
COc1ccccc1N1CCN(c2ccnc3c2cnn3-c2ccccc2)CC1,300,600,4000,,
COc1ncccc1N1CCN(c2ncnc3c2cnn3-c2ccccc2)CC1,180,1360,680,,
COc1ccccc1N1CCN(c2ncnc3c2cnn3-c2cccc(C#N)c2)CC1,33,,350,,
COc1cccc(-n2ncc3c(N4CCN(c5ccccc5OC)CC4)ncnc32)c1,200,900,170,,
COc1ccccc1N1CCN(c2ncnc3c2ncn3-c2ccccc2)CC1,27,3500,64,,
COc1ccccc1N1CCN(c2ncnc3c2cnn3-c2ccncc2)CC1,1200,4400,1600,,
COc1cc(F)ccc1N1CCN(c2ncnc3c2cnn3-c2ccccc2)CC1,10,> 10000,40,,
OC1CCCCC1N1CCN(c2ncnc3c2cnn3-c2ccccc2)CC1 (stereo not given),> 10000,> 10000,> 10000,,

SMILES,IC50 [1] [nM],IC50 [2] [nM],IC50 [3] [nM],CLint scaled [4] [mL/min/kg],CLint scaled [5] [mL/min/kg]
N#Cc1ccccc1N1CCN(c2ncnc3c2cnn3-c2ccccc2)CC1,1810,5990,2050,,
Oc1ccccc1N1CCN(c2ncnc3c2cnn3-c2ccccc2)CC1,7,60,60,,
COc1ccccc1N1CCN(c2ncnc3c2cnn3-c2ccc(F)cc2)CC1,17,> 10000,46,,
COc1c(F)cccc1N1CCN(c2ncnc3c2cnn3-c2ccccc2)CC1,2400,> 10000,10000,,
COc1cc(C#N)ccc1N1CCN(c2ncnc3c2cnn3-c2ccccc2)CC1,150,1700,170,,
COc1ccccc1N1CCN(c2ncnc3c2cnn3-c2ccc(C#N)cc2)CC1,17,> 10000,200,,
COc1ccccc1N1CCC(c2ncnc3c2cnn3-c2ccccc2)CC1,470,,1200,,
COc1ccccc1N1CCN(c2ncnc3c2cnn3-c2ccccc2)CC1C (stereo not given),14,1400,120,,
COc1ccc(C(N)=O)cc1N1CCN(c2ncnc3c2cnn3-c2ccccc2)CC1,5,100,37,,
COc1ccccc1N1CCN(c2ncnc3c2cnn3-c2ccccc2C)CC1,10,1000,250,,
COc1ccccc1N1CCN(c2ncnc3c2nnn3-c2ccccc2)CC1,49,3300,430,,
COc1c(C#N)cccc1N1CCN(c2ncnc3c2cnn3-c2ccccc2)CC1,1200,> 10000,540,,
COc1ccccc1N1CCN(c2ncnc3c2cnn3-c2ncccc2F)CC1,80,7000,,,
FC(F)(F)c1ccccc1N1CCN(c2ncnc3c2cnn3-c2ccccc2)CC1,> 10000,> 10000,> 10000,,
COc1ccc(-n2ncc3c(N4CCN(c5ccccc5OC)CC4)ncnc32)cc1,230,2600,170,,
COc1ccccc1N1CCN(c2ncnc3c2cnn3-c2ccccc2)C(C)C1 (stereo not given),120,2500,480,,
COc1cccc(F)c1N1CCN(c2ncnc3c2cnn3-c2ccccc2)CC1,110,1200,1600,,
COc1ccccc1C1CCN(c2ncnc3c2cnn3-c2ccccc2)CC1,1900,> 10000,> 10000,,
COc1ccccc1N1CCN(c2nccc3c2cnn3-c2ccccc2)CC1,4000,5000,2000,,
COc1ccccc1N1CCN(c2ncnc3c2cnn3-c2cccnc2)CC1,750,6000,1500,,
COc1cccc(N2CCN(c3ncnc4c3cnn4-c3ccccc3)CC2)c1,180,1480,320,,
COc1cccnc1N1CCN(c2ncnc3c2cnn3-c2ccccc2)CC1,60,950,70,,
COc1cnccc1N1CCN(c2ncnc3c2cnn3-c2ccccc2)CC1,230,,1510,,
COc1ccccc1N1CCN(c2nnnc3c2cnn3-c2ccccc2)CC1,> 10000,> 10000,> 10000,,
COc1ccccc1N1CCCN(c2ncnc3c2cnn3-c2ccccc2)CC1,4,21,8,,
Fc1cccc(N2CCN(c3ncnc4c3cnn4-c3ccccc3)CC2)c1,290,1210,540,,
